Assay results taken from US20230165979A1, “COPPER-CONTAINING THERAGNOSTIC COMPOSITIONS AND METHODS OF USE” (Cornell University, priority 2020, published 2023).

Key:
[1] = system: LNCaP tumors; settings: over 96 h p.i.; same animal model; previously determined; cited from earlier work
[2] = system: LNCaP tumors; experiment: Published biodistribution of 177Lu-labeled comparison ligands in the same animal model; type: in vivo, mice; settings: over 96 h p.i.; from previously determined values
Method: When tumor size reached approximately 200 mm^3, mice (n=4/time point) were administered 3.8±0.1 MBq [^64Cu]Cu-RPS-085 or 0.8±0.005 MBq [^67Cu]Cu-RPS-085 by intravenous injection. The total mass dose received by each animal was approximately 50 ng (31 pmol) and approximately 28 ng (17 pmol) for the [^64Cu]Cu-RPS-085 and [^67Cu]Cu-RPS-085 studies, respectively. The mice were sacrificed at 4 h, 24 h, or 48 h p.i. ([^64Cu]Cu-RPS-085) or 4 h, 24 h, and 96 h ([^67Cu]Cu-RPS-085). A blood sample was collected, and the following tissues were collected and weighed wet using a digital balance: heart, lungs, liver, stomach, small intestine, large intestine, spleen, pancreas, kidneys, muscle, bone, and tumor. The tissues were counted on a Wizard2 Automatic Gamma Counter (Perkin Elmer, USA) against a 1% injected dose standard. The counts were corrected for decay and for activity injected, and tissue uptake was expressed as percent injected dose per gram (% ID/g). Standard error of the mean (SEM) was calculated for each data point. Statistical analyses were performed using an unpaired t test with GraphPad Prism software. A P value of less than 0.05 was considered significant. […] Published values for [177Lu]Lu-RPS-063 are shown for comparison; all concentrations are expressed as percent injected dose per organ.

Ãtumor/Ãkidney ratio [2]: 2.1
Substance: [^177Lu]Lu-PSMA-617
accumulated activity (Ã) in LNCaP tumors [1]: 544 (% ID/g)·h | accumulated activity (Ã) in kidneys [1]: 260 (% ID/g)·h
